Test results reported in patent US10577399B2, “Modified lantibiotics and methods of making and using the modified lantibiotics” (priority 2016, dated 2020).
No end group written: not given here.

Assays:
[1] = Pharmacokinetics after intravenous dose in mice; assay type: in vivo; conditions: 2.5 mg/kg i. v., BALB/c mice; at 70 minutes
Procedure: The compounds were dissolved in normal saline for all pharmacokinetic studies. An extraction protocol was developed in vitro by the addition of each compound to commercially bought BALB/c mouse serum. The compounds were extracted by the addition of 70% ACN containing 0.1% TFA/30% methanol containing 0.4% formic acid. The extract was then analyzed by LC-MS using a TSQ Vantage Triple Quad mass spectrometer. A standard curve was generated for each compound using known dilutions of the compounds in serum, which was then extracted. The R-squared values for each standard exceeded 0.98. BALB/c mice were used to evaluate pharmacokinetics of the compounds in vivo. A 2.5 mg/kg i. v. dose was evaluated for native mutacin, R13A, S5G, and double mutant S5A:T14G (FIG. 12A). A polynomial second order was used to estimate the peak plasma concentration and half-life of the R13A. […] Possibly, the Dhb14 residue may protect the peptide from trypsin-like proteases in the blood. […] Thus, taking the dynamics of cell death into account and the pharmacokinetics of the R13A, the R13A in serum is above the inhibitory concentration for S. pneumonia long enough to kill the pathogen.

S. pneumoniae AI11 = experiment: MIC against clinical S. pneumoniae isolate AI11; assay type: cell-based, Streptococcus pneumoniae; conditions: 50% blood added
Procedure: (§1) Minimum Inhibitory Concentrations (MICs) were determined according to previously published protocol^31. A stock solution of the antibiotics tested was first suspended in 50% acetonitrile (ACN) at a concentration 640 μg/mL. This stock was subsequently diluted 2-fold until a final concentration 0.156 μg/mL was reached. Subsequently, 10 μl of each dilution was placed into a well on a 96 well microtiter plate. M. luteus ATCC 10240, S. pneumoniae, and B. subtilis PY79 were grown overnight in THyex at 37° C. Cultures were diluted in the morning to 0.1 OD600 and allowed to grow to 0.6 OD600. This culture was diluted a 100-fold in fresh THyex media and then 400 μl of this culture was added to 10 mL of fresh THyex. The suspension contains approximately 10^5 colony forming units (CFUs). The bacterial suspension (190 μL) was added to each well containing 10 μL of antibiotic suspension or solvent blank. […] Following the 15 minute pretreatment, 190 μL was added to each well as described above. The MIC is described as the […] concentration of antibiotic that prevented visible growth after 24 hours.
(§2) Selective activity and stability of analogs: Several core peptide mutants are provided that have improved activity against our ATCC strain of S. pneumoniae. […]

S. pneumoniae AI16 = experiment: MIC against clinical S. pneumoniae isolate AI16; assay type: cell-based, Streptococcus pneumoniae; conditions: 50% blood added
Procedure: as §1, §2

M. luteus ATCC 10240 [2] = assay type: cell-based, Micrococcus luteus; conditions: Table 11
Procedure: as §1
FIG. 11 illustrates the bioactivity of various core peptide mutants of mutacin 1130. The activity of the core mutant peptides is expressed as a ratio of the area of the zone of inhibition of each mutant strain to the area of the zone of inhibition of the wild-type strain against indicator strain of Micrococcus luteus. […] The deferred antagonism assay is an overlay assay of the indicator strain onto plates containing heat killed colonies of the mutacin producer strain after growing overnight. Core peptide mutants having inhibitory activity were isolated and the purified products were further evaluated by a standard minimum inhibitory concentration (MIC) assay.

C. accolens ATCC 49725 = experiment: MIC/MLC assay against C. accolens ATCC 49725; assay type: cell-based; conditions: THyex broth with 1% Tween 80
C. accolens KPL 1818 = experiment: MIC/MLC assay against C. accolens KPL 1818; assay type: cell-based; conditions: THyex broth with 1% Tween 80
S. pneumoniae ATCC 27336 = assay type: cell-based, Streptococcus pneumoniae; conditions: Table 11
Procedure: as §1, with “hours. […]” for “hours.”

S. aureus ATCC 25923 = experiment: MIC/MLC assay against S. aureus; assay type: cell-based, Staphylococcus aureus; conditions: Table 11
S. pneumoniae AI8 = experiment: MIC against clinical S. pneumoniae isolate AI8; assay type: cell-based, Streptococcus pneumoniae; conditions: 50% blood added
Procedure: as §1, §2

M. luteus ATCC 10240 [3] = experiment: Deferred antagonism (overlay) assay, zone of inhibition; assay type: cell-based, Micrococcus luteus; conditions: relative to wild-type strain
Procedure: The deferred antagonism assay was performed as previously described^39. S. mutans strains were grown overnight in THyex broth at 37° C. The cultures were diluted to 0.1 OD OD600 and grown to mid-logarithmic phase before diluting to 0.05 OD600. Then, 2 μl of the cultures were spotted on THyex plates in duplicates of triplicates. The wild-type S. mutans JH1140 and S. mutans ΔmutA were used as positive and negative controls for activity, respectively. The plates were incubated for 18 hours in a candle jar at 37° C. After incubation, the strains were heat killed at 65° C. for 90 minutes. Fresh M. luteus grown overnight at 37° C. on THyex plates were used to inoculate pre-warmed THyex broth. The culture was grown to 0.6 to 0.8 OD before diluting to 0.2 OD600. The culture was further diluted 25-fold in melted (42° C.) THyex top agar. Approximately 5 mL of the top agar solution was spread on the heat killed bioassay plates and allowed to cool for 10 minutes. The plates were then placed in the incubator (at 37° C.) for 18 hours.
Streptococcus mutans ATCC 55676 (wild-type) and the mutants that were at an OD600 of 0.2 were spotted in triplicates on a pre-warmed THyex agar plate (150×15 mm) and allowed to dry. This assay was performed in this manner to ensure that each sample had the same colony size for comparing zones of inhibition. The plate was incubated for 24 hours then placed in an oven at 50° C. for thirty minutes to kill the bacteria before the indicator strain was overlaid. Heat killing the bacteria prevents any further antimicrobial compound production so that results seen are from single day incubation. Zone diameter was measured in millimeters across the plate and compared to wild-type (i.e. zone I for ATCC compared to zone I of Trp4Ala, etc.).

S. pneumoniae AI14 = experiment: MIC against clinical S. pneumoniae isolate AI14; assay type: cell-based, Streptococcus pneumoniae; conditions: 50% blood added
Procedure: as §1, §2

S. pneumoniae AI17 = experiment: MIC against clinical S. pneumoniae isolate AI17; assay type: cell-based, Streptococcus pneumoniae; conditions: 50% blood added
Procedure: as §1, §2

B. subtilis PY79 cells = experiment: Confocal microscopy localization of fluorescein labeled peptides; assay type: cell-based, Bacillus subtilis; conditions: 10 μg/mL, 15 minutes
Procedure: B. subtilis PY79 was grown and treated with fluorescein labeled peptide as previously described^39. A fresh plate of B. subtilis was used to inoculate THyex broth and incubated approximately 16 hours at 37° C. The culture was diluted 20-fold and placed back in the incubator for 3 hours at 37° C. Then, 100 μl of the culture was incubated with the antibiotic (10 μg/mL) for 15 minutes. The cells were pelleted and resuspended in 100 μl of phosphate buffer solution (PBS). The wash step was repeated three times before fixing with 1.6% formaldehyde in PBS. After fixation the cells were washed with PBS three more times and the remaining pellet was suspended in 50 μL of PBS. The sample (30 μL) was added to a slide and observed using an Olympus confocal microscope with a 100×/0.90 dry objective. A 488 nm argon laser was used to excite the fluorophore. For the competition assay, the bacterial culture was initially incubated with mu1140-COOH or native mutacin 1140 at a concentration of 10 μg/mL for 15 minutes, washed, and resuspended in fresh media. 10 μg/mL of fluorescein labeled nisin was then added for 15 minutes, before following the wash protocol previously stated.

| Molecule | plasma level / clearance from blood [1] | MIC S. pneumoniae AI11 (S. pneumoniae AI11) [micrograms per milliliter] | MIC S. pneumoniae AI16 (S. pneumoniae AI16) [micrograms per milliliter] | M. luteus ATCC 10240 MIC (M. luteus ATCC 10240 [2]) [micrograms per milliliter] | M. luteus ATCC 10240 MLC (M. luteus ATCC 10240 [2]) [micrograms per milliliter] | C. accolens ATCC 49725 MIC (C. accolens ATCC 49725) [micrograms per milliliter] | C. accolens ATCC 49725 MLC (C. accolens ATCC 49725) [micrograms per milliliter] | C. accolens KPL 1818 MIC (C. accolens KPL 1818) [micrograms per milliliter] | C. accolens KPL 1818 MLC (C. accolens KPL 1818) [micrograms per milliliter] | S. pneumonia ATCC 27336 MIC (S. pneumoniae ATCC 27336) [micrograms per milliliter] | S. pneumonia ATCC 27336 MLC (S. pneumoniae ATCC 27336) [micrograms per milliliter] | S. aureus ATCC 25923 MIC (S. aureus ATCC 25923) [micrograms per milliliter] | S. aureus ATCC 25923 MLC (S. aureus ATCC 25923) [micrograms per milliliter] | MIC S. pneumoniae AI8 (S. pneumoniae AI8) [micrograms per milliliter] | zone of inhibition / inhibitory activity in deferred antagonism assay (M. luteus ATCC 10240 [3]) | MIC S. pneumoniae AI14 (S. pneumoniae AI14) [micrograms per milliliter] | MIC S. pneumoniae AI17 (S. pneumoniae AI17) [micrograms per milliliter] | in vivo localization pattern of fluorescein labeled peptide (B. subtilis PY79 cells) | in vivo localization pattern of fluorescein labeled peptide (B. subtilis PY79 cells; listed as Fluorescein conjugated nisin) |
| --- | --- | --- | --- | --- | --- | --- | --- | --- | --- | --- | --- | --- | --- | --- | --- | --- | --- | --- | --- |
| CC(C)C[C@@H]1NC(=O)[C@H](C)NC(=O)[C@H](Cc2c[nH]c3ccccc23)NC(=O)C(NC(=O)[C@H](CCCCN)NC(=O)[C@@H](N)Cc2ccccc2)CSC[C@@H](C(=O)NC2C(=O)N3CCC[C@H]3C(=O)NCC(=O)N[C@H](C(=O)N[C@@H](C)C(=O)N[C@@H](CCCNC(=N)N)C(=O)NCC(=O)NCC(=O)NC3CSC[C@@H]4NC(=O)[C@H](Cc5ccc(O)cc5)NC(=O)[C@@H](CS/C=C\NC4=O)NC(=O)[C@H](CC(N)=O)NC(=O)[C@H](Cc4ccccc4)NC3=O)CSC2C)NC1=O (stereo partly shown) [S5A:T14G] | performed the worst | – | – | – | – | – | – | – | – | – | – | – | – | – | – | – | – | – | – |
| T14A: core peptide mutant of mutacin 1140, Threonine 14 replaced by Alanine (FKSWSLCTPGCARAGSFNSYCC; UniProt O68586 42-63, looked up, variant T14A) [Mutant T14A] | – | 4 | 8 | 0.125 | 0.125 | 0.25 | 0.25 | 0.5 | 2 | 0.5 | 0.5 | 8 | 16 | 8 | no change in activity | 2 | 8 | – | – |
| T14G: core peptide mutant of mutacin 1140, Threonine 14 replaced by Glycine (FKSWSLCTPGCARGGSFNSYCC; not fully specified; ends and bridges not checked; UniProt O68586 42-63, looked up, variant T14G) [Mutant T14G] | – | 2 | 8 | 0.0625 | 0.0625 | 0.0625 | 0.0625 | 0.25 | 0.5 | 0.5 | 0.5 | >32 | >32 | 8 | – | 1 | 8 | – | – |
| fluorescein labeled nisin: nisin containing a C-terminal conjugate of fluorescein (ITSISLCTPGCKTGALMGCNMKTATCHCSIHVSK-fluorescein; ends and bridges not checked; also: lantibiotic thioether (lanthionine) rings and dehydrated residues, places not given here; UniProt P13068 24-57, looked up) | – | – | – | – | – | – | – | – | – | – | – | – | – | – | – | – | – | large green patches on the cell surface | binds and abducts lipid II to form patches |
